# According to patent US20170143603A1, “PROCESS FOR SEMI-PERMANENT STRAIGHTENING OF CURLY, FRIZZY OR WAVY HAIR” (KAO CORPORATION, priority 2010, published 2017):
# Assay: Hair straightening treatment, assessment in words of hair look and permanence
# Parameters: species or system human
# Method: Tests consisted in dissolving 10 grams of glyoxylic acid in 100 milliliters of water.
# In particular, hair was washed with basic pH (7.5-8.5) shampoo, then said glyoxylic acid solution was applied (application can be made with hard bristle brush, spray or in any other way).
# Hair was left in contact with the substance for 60 minute time (+/−30 minutes) and then dried with the hairdryer.
# Once dried, hair was straightened with hair straightening iron heated at average temperature of approximately 200°C., +/−50° C.
# Finally, hair was rinsed again with water or washed again with shampoo and dried.
# Each substance was tested in a mixture with such glyoxylic acid solution by adding 10 grams of one of the substances listed in table 2 to 100 milliliters of said solution.
# In particular, a hair straightening test was carried out using the formulation of a cosmetic product by INOAR Cosmeticos Ltda of San Paulo, Brazil, known as “Tratamento capillar marroquino”. The product was deprived of its active ingredient for hair straightening.
# 10 grams of glyoxylic acid were added to 100 milliliters of said cosmetic and, after carrying out the same hair treatment operations illustrated in the foregoing pages, the results were identical to the ones achieved using the same percentage ratio of glyoxylic acid in water.
structure (smiles),measurement,setting,value
"O=CC(=O)O [glyoxylic acid, Glyoxylic acid]",hair condition at the end of treatment,10 grams of glyoxylic acid in 100 milliliters of cosmetic “Tratamento capillar marroquino” deprived of its active ingredient,"permanently shiny, straight, volumeless, and soft to touch"
same,hair condition at the end of treatment,"10 grams of glyoxylic acid in 100 milliliters of water, 60 minute contact, iron approximately 200°C.","shiny, straight, volumeless, soft to touch, and especially pleasant"
same,efficacy of treatment maintained over time,"washings, rinsings and dryings in normal use conditions of hair shampoo","at least six washings, rinsings and dryings"
same,result compared with the other buffering agents of the European list,within the process of the invention,best results
